Source: patent US20240228555A9, “ANTIMICROBIAL PEPTIDOMIMETICS” (Basilea Pharmaceutica International AG, Allschwil, priority 2020, published 2024)
Where a SMILES comes first, the peptide text is derived from it.

Key:
[1] = system: Klebsiella pneumoniae SSI3010; details: SSI3010
Protocol: (§1) Lyophilized peptides were weighed on a Microbalance (Mettler MT5) and dissolved in sterile water to a final concentration of 1 mg/mL. Stock solutions were kept at +4° C., light protected.
(§2) Colonies of the microorganisms were diluted in saline (0.85%, NaCl) and adjusted using a McFarland reader (bioMérieux SA, Marcy-l'Etoile, France) to 0.5 McFarland standard. Subsequently, the bacterial suspension was diluted in Mueller-Hinton II (MHII, cation adjusted) broth to give approximately 5×10^5 colony forming units (CFU/mL).
(§3) 10^6 colony forming units (CFU)/mL. Aliquots (90 μl) of inoculate were added to 10 μl of water+P-80 (Polysorbate 80, 0.002% final concentration) containing the peptide in serial two-fold dilutions at 10 fold final concentration. The following microorganisms were used to determine antibiotic selectivity of the peptides: Escherichia coli ATCC 25922, Escherichia coli MCR-1 Af 45 and Klebsiella pneumoniae SSI3010.

[2] = system: Escherichia coli ATCC 25922; details: ATCC 25922
Protocol: as §1, §2, §3

[3] = system: Escherichia coli MCR-1 Af 45; details: Mueller-Hinton broth II, no visible growth after 18-20 hours at 35° C.
Protocol: as §1, §2, §3

[4] = system: human red blood cells (hRBC); type: cell-based; details: red cells of human, 1 h, 0.2 g/L
Protocol: as §1
The peptides were tested for their hemolytic activity against human red blood cells (hRBC). Fresh hRBC were washed three times with phosphate buffered saline (PBS) and centrifuged for 5 min at 3000×g. Compounds (200 μg/mL) were incubated with 20% hRBC (v/v) for 1 h at 37° C. and shaking at 300 rpm. A value of 0% and 100% cell lyses, respectively, was determined by incubation of hRBC in the presence of PBS and 2.5% Triton X-100 in H2O, respectively. The samples were centrifuged, the supernatants were 8-fold diluted in PBS buffer and the optical densities (OD) were measured at 540 nm. The 100% lyses value (OD540H2O) gave an OD540 of approximately 0.5-1.0.
Percent hemolysis was calculated as follows: (OD540peptide/OD540H2O)×100%.

| Structure (SMILES) | Klebsiella pneumoniae SSI3010 MIC [1] [mg/L] | Escherichia coli ATCC 25922 MIC [2] [mg/L] | Escherichia coli MCR-1 Af 45 MIC [3] [mg/L] | Hemolysis at 0.2 g/L [4] [%] |
| --- | --- | --- | --- | --- |
| CC[C@H](C)[C@H](NC(=O)[C@@H](NC(=O)[C@@H]1C[C@@H](O)CN1C(=O)[C@@H](N)C(C)C)[C@@H](C)CC)C(=O)N[C@@H](Cc1ccc(O)cc1)C(=O)N[C@@H]1C(=O)N[C@@H](CC(N)=O)C(=O)N[C@@H](CCCNC(=N)N)C(=O)N[C@@H](CCN)C(=O)N[C@@H](CO)C(=O)N[C@H](CCN)C(=O)N[C@@H]([C@@H](C)CC)C(=O)N[C@H](C(=O)N[C@@H](CCN)C(=O)N[C@@H](CCN)C(=O)N[C@@H](Cc2ccc(O)cc2)C(=O)O)CSSC1(C)C [Example 84, Val-Hyp-Ile-Ile-Tyr-Pen-Asn-Arg-Dab-Ser-^DDab-Ile-Cys-Dab-Dab-Tyr] (HELM PEPTIDE1{V.[Hyp].I.I.Y.[Pen].N.R.[Dab].S.[NCC[C@@H](N[*:1])C(=O)[*:2]].I.C.[Dab].[Dab].Y}$PEPTIDE1,PEPTIDE1,6:R3-13:R3$$$V2.0) | 0.5 | 0.25 | 0.25 | <1 |
| CC[C@H](C)[C@H](NC(=O)[C@@H](NC(=O)[C@@H]1C[C@@H](O)CN1C(=O)[C@@H](N)C(C)C)[C@@H](C)CC)C(=O)N[C@@H](Cc1ccc(O)cc1)C(=O)N[C@@H]1C(=O)N[C@@H](CC(N)=O)C(=O)N[C@@H](CCCNC(=N)N)C(=O)N[C@@H](CCN)C(=O)N[C@@H]([C@@H](C)O)C(=O)N[C@H](CCN)C(=O)N[C@@H](CCCCN)C(=O)N[C@H](C(=O)N[C@@H](CCN)C(=O)N[C@@H](CCCN)C(=O)N[C@@H](Cc2ccc(O)cc2)C(=O)O)CSSC1(C)C [Example 85, Val-Hyp-Ile-Ile-Tyr-Pen-Asn-Arg-Dab-Thr-^DDab-Lys-Cys-Dab-Orn-Tyr] (HELM PEPTIDE1{V.[Hyp].I.I.Y.[Pen].N.R.[Dab].T.[NCC[C@@H](N[*:1])C(=O)[*:2]].K.C.[Dab].[Orn].Y}$PEPTIDE1,PEPTIDE1,6:R3-13:R3$$$V2.0) | 0.25 | 0.125 | 0.0625 | <1 |
| CC[C@H](C)[C@H](NC(=O)[C@@H](NC(=O)[C@@H]1C[C@@H](O)CN1C(=O)[C@@H](N)C(C)C)[C@@H](C)CC)C(=O)N[C@@H](Cc1ccc(O)cc1)C(=O)N[C@@H]1C(=O)N[C@@H](CC(N)=O)C(=O)N[C@@H](CCCNC(=N)N)C(=O)N[C@@H](CCN)C(=O)N[C@@H](CO)C(=O)N[C@H](CCN)C(=O)N[C@@H](CCCCN)C(=O)N[C@H](C(=O)N[C@@H](CCN)C(=O)N[C@@H](CCCN)C(=O)N[C@@H](Cc2ccc(O)cc2)C(=O)O)CSSC1(C)C [Example 86, Val-Hyp-Ile-Ile-Tyr-Pen-Asn-Arg-Dab-Ser-^DDab-Lys-Cys-Dab-Orn-Tyr] (HELM PEPTIDE1{V.[Hyp].I.I.Y.[Pen].N.R.[Dab].S.[NCC[C@@H](N[*:1])C(=O)[*:2]].K.C.[Dab].[Orn].Y}$PEPTIDE1,PEPTIDE1,6:R3-13:R3$$$V2.0) | 0.25 | 0.125 | 0.0625 | <1 |
| CC[C@H](C)[C@H](NC(=O)[C@@H](NC(=O)[C@@H]1C[C@@H](O)CN1C(=O)[C@@H](N)C(C)C)[C@@H](C)CC)C(=O)N[C@@H](Cc1ccc(O)cc1)C(=O)N[C@@H]1C(=O)N[C@@H](CC(N)=O)C(=O)N[C@@H](CCCNC(=N)N)C(=O)N[C@@H](CCN)C(=O)N[C@@H]([C@@H](C)O)C(=O)N[C@H](CCN)C(=O)N[C@@H]([C@@H](C)CC)C(=O)N[C@H](C(=O)N[C@@H](CCN)C(=O)N[C@@H](CCCNC(=N)N)C(=O)N[C@@H](Cc2ccc(O)cc2)C(=O)O)CSSC1(C)C [Example 87, Val-Hyp-Ile-Ile-Tyr-Pen-Asn-Arg-Dab-Thr-^DDab-Ile-Cys-Dab-Arg-Tyr] (HELM PEPTIDE1{V.[Hyp].I.I.Y.[Pen].N.R.[Dab].T.[NCC[C@@H](N[*:1])C(=O)[*:2]].I.C.[Dab].R.Y}$PEPTIDE1,PEPTIDE1,6:R3-13:R3$$$V2.0) | 0.25 | 0.125 | 0.125 | <1 |
| CC[C@H](C)[C@@H]1NC(=O)[C@@H](NC(=O)[C@H](Cc2ccc(O)cc2)NC(=O)[C@@H](NC(=O)[C@@H](NC(=O)[C@@H]2C[C@@H](O)CN2C(=O)[C@@H](N)C(C)C)[C@@H](C)CC)[C@@H](C)O)C(C)(C)SSC[C@@H](C(=O)N[C@@H](CCN)C(=O)N[C@@H](CCCN)C(=O)N[C@@H](Cc2ccc(O)cc2)C(=O)O)NC(=O)[C@H](CCCCN)NC(=O)[C@@H](CCN)NC(=O)[C@H]([C@@H](C)O)NC(=O)[C@H](CCN)NC(=O)[C@H](CCCNC(=N)N)NC1=O [Example 88, Val-Hyp-Ile-Thr-Tyr-Pen-Ile-Arg-Dab-Thr-^DDab-Lys-Cys-Dab-Orn-Tyr] (HELM PEPTIDE1{V.[Hyp].I.T.Y.[Pen].I.R.[Dab].T.[NCC[C@@H](N[*:1])C(=O)[*:2]].K.C.[Dab].[Orn].Y}$PEPTIDE1,PEPTIDE1,6:R3-13:R3$$$V2.0) | 0.25 | 0.125 | 0.0625 | <1 |
| CC[C@H](C)[C@H](NC(=O)[C@@H]1C[C@@H](O)CN1C(=O)[C@@H](N)C(C)C)C(=O)N[C@@H](CCN)C(=O)N[C@@H](Cc1ccc(O)cc1)C(=O)N[C@@H]1C(=O)N[C@@H](CC(N)=O)C(=O)N[C@@H](CCCNC(=N)N)C(=O)N[C@@H](CCN)C(=O)N[C@@H]([C@@H](C)O)C(=O)N[C@H](CCN)C(=O)N[C@@H](CCCCN)C(=O)N[C@H](C(=O)N[C@@H](CCN)C(=O)N[C@@H](CCCN)C(=O)N[C@@H](Cc2ccc(O)cc2)C(=O)O)CSSC1(C)C [Example 89, Val-Hyp-Ile-Dab-Tyr-Pen-Asn-Arg-Dab-Thr-^DDab-Lys-Cys-Dab-Orn-Tyr] (HELM PEPTIDE1{V.[Hyp].I.[Dab].Y.[Pen].N.R.[Dab].T.[NCC[C@@H](N[*:1])C(=O)[*:2]].K.C.[Dab].[Orn].Y}$PEPTIDE1,PEPTIDE1,6:R3-13:R3$$$V2.0) | 0.25 | 0.0625 | 0.0625 | <1 |
| CC[C@H](C)[C@H](NC(=O)[C@@H](NC(=O)[C@@H]1C[C@@H](N)CN1C(=O)[C@@H](N)C(C)C)[C@@H](C)CC)C(=O)N[C@@H](Cc1ccc(O)cc1)C(=O)N[C@@H]1C(=O)N[C@@H](CC(N)=O)C(=O)N[C@@H](CCCNC(=N)N)C(=O)N[C@@H](CCN)C(=O)N[C@@H]([C@@H](C)O)C(=O)N[C@H](CCN)C(=O)N[C@@H]([C@@H](C)CC)C(=O)N[C@H](C(=O)N[C@@H](CCN)C(=O)N[C@@H](CCCNC(=N)N)C(=O)N[C@@H](Cc2ccc(O)cc2)C(=O)O)CSSC1(C)C [Example 90, Val-Pro((4R)NH2)-Ile-Ile-Tyr-Pen-Asn-Arg-Dab-Thr-^DDab-Ile-Cys-Dab-Arg-Tyr] (HELM PEPTIDE1{V.[N[C@@H]1C[C@@H](C(=O)[*:2])N([*:1])C1].I.I.Y.[Pen].N.R.[Dab].T.[NCC[C@@H](N[*:1])C(=O)[*:2]].I.C.[Dab].R.Y}$PEPTIDE1,PEPTIDE1,6:R3-13:R3$$$V2.0) | 0.25 | 0.125 | 0.0625 | <1 |
| CC[C@H](C)[C@H](NC(=O)[C@@H](NC(=O)[C@@H]1C[C@@H](N)CN1C(=O)[C@@H](N)C(C)C)[C@@H](C)CC)C(=O)N[C@@H](Cc1ccc(O)cc1)C(=O)N[C@@H]1C(=O)N[C@@H](CC(N)=O)C(=O)N[C@@H](CCCNC(=N)N)C(=O)N[C@@H](CCN)C(=O)N[C@@H]([C@@H](C)O)C(=O)N[C@H](CCN)C(=O)N[C@@H](CCCNC(N)=O)C(=O)N[C@H](C(=O)N[C@@H](CCN)C(=O)N[C@@H](CCCNC(=N)N)C(=O)N[C@@H](Cc2ccc(O)cc2)C(=O)O)CSSC1(C)C [Example 91, Val-Pro((4R)NH2)-Ile-Ile-Tyr-Pen-Asn-Arg-Dab-Thr-^DDab-Cit-Cys-Dab-Arg-Tyr] (HELM PEPTIDE1{V.[N[C@@H]1C[C@@H](C(=O)[*:2])N([*:1])C1].I.I.Y.[Pen].N.R.[Dab].T.[NCC[C@@H](N[*:1])C(=O)[*:2]].[Cit].C.[Dab].R.Y}$PEPTIDE1,PEPTIDE1,6:R3-13:R3$$$V2.0) | 0.25 | 0.25 | 0.03125 | <1 |
